Data published in patent US10668051B2, “Modulators of calcium release-activated calcium channel” (Rhizen Pharmaceuticals SA, priority 2009, dated 2020).

Key:
CRAC channels [1] = molecular target: T1, CRAC channels (Homo sapiens (Human), UniProt Q96D31); assay: In-vitro CRAC channel inhibition assay in Jurkat cells (thapsigargin-induced calcium influx); type: cell-based
Procedure, shortened: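 Jurkat cells given test compounds in Ca2+/Mg2+-free Hanks buffer for 15 min, then thapsigargin (1 μM final) for 15 min to deplete ER stores. IC50 from percent inhibition of thapsigargin-induced Ca2+ influx.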

IL-2 [2] = assay: Inhibition of cytokine release in Human Whole Blood: IL-2; type: cell-based; conditions: Con A + PMA, 20 h, ELISA, read-out: IC 50 Human Whole Blood IL-2
Experimental: (§1) 2. In Vitro Inhibition of Cytokine Release in Jurkat Cells, Human Whole Blood and Peripheral Blood Mononuclear Cells (PBMC).
(§2) Inhibition of cytokine IL-2, IL-4, IL-5 and TNF α was determined as described below. • a. Inhibition of IL-2 in Jurkat cells: Cells were incubated with desired concentrations of the inhibitor for 15 min. Cytokine release was induced by the addition of Concanavalin A (25 μg/ml)+Phorbol Myristate Acetate (50 ng/ml) for IL-2 & TNFα or with Phytohemagglutinin ([…]) for IL-4 & IL-5 and incubated at 37° C. in an atmosphere containing […]. Supernatant was collected after 20 h (IL-2 & TNFα) or 48 h (IL-4 & IL-5) for estimation of cytokines by ELISA. Data were analysed using GraphPad Prism. IC50 values for each compound were determined based on the percent inhibition due to the test compound compared to the control. • b. Inhibition of cytokine release in Human Whole Blood (HWB): Freshly collected HWB was diluted with RPMI medium (1:4.5) and added to a 96-well plate. Wells were incubated with desired concentrations of the inhibitor for 15 min. Cytokine release was induced by the addition of Concanavalin A (25 μg/ml)+Phorbol Myristate Acetate (50 ng/ml) for IL-2 & TNFα or with Phytohemagglutinin (5 μg/ml) for IL-4 & IL-5 and incubated at 37° C. in an atmosphere containing […]. Supernatant was collected after 20 h (IL-2 & TNFα) or 48 h (IL-4 & IL-5) for estimation of cytokines by ELISA. Data were analysed using GraphPad Prism. IC50 values for each compound were determined based on the percent inhibition due to the test compound compared to the control. • c. Inhibition of cytokine release in PBMC: PBMC from freshly collected HWB were isolated by density gradient using Histopaque and seeded in a 96-well plate. Cells were incubated with desired concentrations of the inhibitor for 15 min. Cytokine release was induced by the addition of Concanavalin A (25 μg/ml)+Phorbol Myristate Acetate (50 ng/ml) for IL-2 & TNFα or with Phytohemagglutinin (5 μg/ml) for IL-4 & IL-5 and incubated at 37° C. in an atmosphere containing […]. Supernatant was collected after 20 h (IL-2 & TNFα) or 48 h (IL-4 & IL-5) for estimation of cytokines by ELISA. Data were analysed using GraphPad Prism. IC50 values for each compound were determined based on the percent inhibition due to the test compound compared to the control.

IL-4 [3] = assay: Inhibition of cytokine release in Human Whole Blood: IL-4; type: cell-based; conditions: Phytohemagglutinin, 48 h, ELISA, read-out: IC 50 Human Whole Blood IL-4
Experimental: as §1, §2

Female Balb/C mice = assay: Concanavalin (Con) A induced Hepatitis in Female Balb/C mice; type: in vivo; conditions: 10 mg/kg b.wt, oral, 1 hour prior to Con A; blood after 24 hours
Experimental: i. Concanavalin (Con) A induced Hepatitis in Female Balb/C mice: Con A is often used to prepare experimental animals with high levels of cytotoxic T-lymphocytes, because these cells are involved in the development of viral infections in humans. In this model, animals were administered test compounds orally 1 hour prior to intravenous administration of Con A. Blood samples were collected after 24 hours for determination of Serum glutamic oxaloacetic transaminase (SGOT) and Serum glutamic pyruvic transaminase (SGPT) in serum. Results indicated >85% reduction in serum SGOT & SGPT upon administration of the test compound (example 69) at 10 mg/kg b.wt.

Guinea Pigs = assay: OVA-Induced Asthma in Guinea Pigs; type: in vivo; conditions: 10 mg/kg b.wt, oral, 1 h before OVA challenge
Experimental: iv. OVA-Induced Asthma in Guinea Pigs: Pulmonary eosinophilia and airway remodelling in conjunction with altered neural control of airway tone and airway epithelial desquamation contributes to Airway Hyper-responsiveness (AHR) in asthma. For determination of eosinophil reduction, animals were sensitized with OVA on d0, d7, and d14 followed by another round (0.1% w/v) through inhalation on d19 & d20. Compounds were administered orally 1 h before OVA challenge (0.3%). BAL fluid was collected on d22 for differential count and cytokine estimation. For determination of change in respiratory parameters, animals were subjected to whole body plethysmography immediately after ova challenge.

male DBA/1 Ola HSD mice = assay: Collagen-induced arthritis in male DBA/1 Ola HSD mice; type: in vivo; conditions: 10 mg/kg b.wt, daily po, qd
Experimental: v. Collagen-induced arthritis in male DBA/1 Ola HSD mice: Collagen induced arthritis in rodent models have been widely used to illustrate and understand the development of the disease besides serving as a surrogate for validation of therapeutic targets for human rheumatoid arthritis. Mice were anesthetized with Isoflurane and given 150 μl of Bovine Type II collagen in Freund's complete adjuvant injections (day 0 and day 21). Treatment was initiated on study day 0 and continued once daily, every day (po, qd). Starting on day 18, clinical scores were given daily for each of the paws (right front, left front, right rear, left rear) and continued till the day of sacrifice (day 34). Daily administration of the test compound (Example 69) at 10 mg/kg b.wt alleviated arthritic symptoms, disease progression, and incidence by 30% compared to the control animals.

[4] = tested on: CRAC channels over the voltage operated channels (VOC); conditions: Yasurio Yonetoky et al.; cited from earlier work
TNFα [5] = assay: Inhibition of cytokine release in Human Whole Blood: TNFα; type: cell-based; conditions: Con A + PMA, 20 h, ELISA, read-out: IC 50 Human Whole Blood TNFα
Experimental: as §1, §2

IL-5 [6] = assay: Inhibition of cytokine release in Human Whole Blood: IL-5; type: cell-based; conditions: Phytohemagglutinin, 48 h, ELISA, read-out: IC 50 Human Whole Blood IL-5
Experimental: as §1, §2

IL-2 [7] = assay: Inhibition of cytokine release in PBMC: IL-2; type: cell-based; conditions: Homo sapiens, Con A + PMA, 20 h, ELISA, read-out: IC 50 PBMC IL-2
Experimental: as §1, §2

TNFα [8] = assay: Inhibition of cytokine release in PBMC: TNFα; type: cell-based; conditions: Homo sapiens, Con A + PMA, 20 h, ELISA, read-out: IC 50 PBMC TNFα
Experimental: as §1, §2

IL-5 [9] = assay: Inhibition of cytokine release in PBMC: IL-5; type: cell-based; conditions: Homo sapiens, Phytohemagglutinin, 48 h, ELISA, read-out: IC 50 PBMC IL-5
Experimental: as §1, §2

IL-4 [10] = assay: Inhibition of cytokine release in PBMC: IL-4; type: cell-based; conditions: Homo sapiens, Phytohemagglutinin, 48 h, ELISA, read-out: IC 50 PBMC IL-4
Experimental: as §1, §2

IL-2 [11] = assay: Inhibition of IL-2 in Jurkat cells; type: cell-based; conditions: Homo sapiens, Con A + PMA, 20 h, ELISA, read-out: IC 50 Jurkat IL-2
Experimental: as §1, §2

CRAC channels [12] = molecular target: T1, CRAC channels; assay: In-vitro CRAC channel inhibition assay in NCI-H460 cancer cell line (Ca assay); type: cell-based; conditions: thapsigargin-induced calcium influx, NCI-H460 cells
Experimental: 1B. In-Vitro CRAC Channel Inhibition Assay in NCI-H460 Cancer Cell Line
Inhibition of CRAC channels was determined following thapsigargin (Sigma, Cat #T9033) induced endoplasmic calcium release in NCI-H460 cells (National Centre For Cell Science (NCCS), Pune).
Cells (30,000 per well) were plated overnight in complete RPMI medium. Medium was substituted with Ca^2+ and Mg^2+ free Hanks buffer and Fluo-8 NW dye (ABD Bioquest, Inc., Sunnyvale, Calif.) loading solution in 96-well black plate. Plate was incubated at 37° C./5% CO2 for 30 min followed by further 15 min incubation at room temperature. Test compounds (DMSO stocks diluted in Ca^2+ and Mg^2+ free Hanks buffer) at desired concentrations were added to the wells and incubated for 15 min. Thapsigargin (1 μM final concentration) was added to the wells and incubated for 15 min to inhibit the Sarco-endoplasmic reticulum Ca^2+ ATPase pump thereby depleting endoplasmic calcium and raising cytosolic calcium concentrations. Store-operated calcium entry was initiated by adding extracellular Ca^2+ to a final concentration of 2.5 mM. Fluorescence was monitored over 30 min on a plate reader (BMG Labtech., Germany) with excitation at 485 nm and an emission wavelength at 520 nm. Data were analyzed using GraphPad Prism. IC50 for each compound was determined based on the percent inhibition of Thapsigargin-induced calcium influx into cells.

[13] = tested on: NCI-H460 cancer cell line; assay: In-vitro cell proliferation assay in NCI-H460 cancer cell line (MTT); type: cell-based; conditions: Homo sapiens, 10 μM, 48 h
Experimental: 1C. In-Vitro Cell Proliferation Assay in NCI-H460 Cancer Cell Line (Anticancer Activity)
Growth inhibition assays were carried out using 10% FBS supplemented media. Cells were seeded at a concentration of 5000 cells/well in a 96-well plate. Test compound at a concentration range from 0.01 to 10000 nM were added after 24 h. Growth was assessed using the 3-[4,5-dimethylthiazol-2-yl]-2,5-diphenyltetrazolium bromide (MTT) dye reduction test at 0 h (prior to the addition of the test compound) and 48 h after the addition of test compound. Absorbance was read on a Fluostar Optima (BMG Labtech, Germany) at a wave length of 450 nm. Data were analysed using GraphPad Prism. IC-50 for each compound was determined based on the % inhibition due to the test compound compared to the control.
For methods of cell proliferation assay, see, for example, Mosmann. T., Journal of Immunological Methods, 65(1-2), 55-63, (1983).

T1 sequence (Q96D31 whole entry): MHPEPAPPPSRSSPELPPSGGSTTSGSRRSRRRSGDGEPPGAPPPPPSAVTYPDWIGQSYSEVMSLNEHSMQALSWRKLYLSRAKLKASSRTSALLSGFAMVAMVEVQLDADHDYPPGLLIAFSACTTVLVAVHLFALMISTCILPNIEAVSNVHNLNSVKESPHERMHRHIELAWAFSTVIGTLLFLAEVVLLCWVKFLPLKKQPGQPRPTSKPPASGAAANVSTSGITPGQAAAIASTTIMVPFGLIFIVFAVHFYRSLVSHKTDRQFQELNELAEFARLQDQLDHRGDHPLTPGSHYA

inhibition at 1 µM (CRAC channels [1])	IC50 (IL-2 [2])	IC50 (IL-4 [3])	IC50 (TNFα [5])	IC50 (IL-5 [6])	IC50 (IL-2 [7])	IC50 (TNFα [8])	IC50 (IL-5 [9])	IC50 (IL-4 [10])	IC50 (IL-2 [11])	inhibition at 1 µM (CRAC channels [12])	SMILES	reduction in serum SGOT (Female Balb/C mice)	reduction in serum SGPT (Female Balb/C mice)	change in respiratory parameters (whole body plethysmography) (Guinea Pigs)	alleviation of arthritic symptoms, disease progression, and incidence compared to the control animals (male DBA/1 Ola HSD mice)	selective index CRAC channels over VOC [4]	inhibition at 10 µM [13]
100%	229 nM	260 nM									O=C(Nc1ccc(-n2nc(C(F)(F)F)cc2C2CC2)c(F)c1)c1c(F)cccc1F [Example 88, N-{4-[5-cyclopropyl-3-(trifluoromethyl)-1H-pyrazol-1-yl]-3-fluorophenyl}-2,6-difluorobenzamide]						
74.6%											Cc1ncc(C(=O)Nc2ccc(-n3nc(C(F)(F)F)cc3C3CC3)cc2)c(C)n1 [Example 69, N-{4-[5-cyclopropyl-3-(trifluoromethyl)-1H-pyrazol-1-yl]phenyl}-2,4-dimethylpyrimidine-5-carboxamide]	> 85%	> 85%	improvement in respiration	30%		
											Cc1nnsc1C(=O)Nc1ccc(-n2nc(C(F)(F)F)cc2C(F)(F)F)cc1 [YM-58483]					31	
96.2%	138 nM	143 nM	38.4 nM	19.8 nM	17.5 nM	16.5 nM	20.6 nM	55.8 nM			O=C(Nc1ccc(-n2nc(C(F)(F)F)cc2C2CC2)nc1)c1c(F)cccc1F [Example 108, N-{6-[5-cyclopropyl-3-(trifluoromethyl)-1H-pyrazol-1-yl]pyridin-3-yl}-2,6-difluorobenzamide]						
86.7%	77.8 nM	256 nM		56.4 nM	31.4 nM						O=C(Nc1c(F)cccc1F)c1ccc(-n2nc(C(F)(F)F)cc2C2CC2)c(F)c1 [Example 100, 4-[5-cyclopropyl-3-(trifluoromethyl)-1H-pyrazol-1-yl]-N-(2,6-difluorophenyl)-3-fluorobenzamide]						
100%	600 nM			46.3 nM	54.3 nM		198 nM				Cc1nnsc1C(=O)Nc1ccc(-n2nc(C3CC3)cc2C2CC2)c(F)c1 [Example 28, N-[4-(3,5-dicyclopropyl-1H-pyrazol-1-yl)-3-fluorophenyl]-4-methyl-1,2,3-thiadiazole-5-carboxamide]						
90%	65.1 nM	142 nM	148 nM	173 nM	52.9 nM	66.8 nM	140 nM	264 nM	140 nM		Cc1ncncc1C(=O)Nc1ccc(-n2nc(C(F)(F)F)cc2C2CC2)c(F)c1 [Example 93, N-{4-[5-cyclopropyl-3-(trifluoromethyl)-1H-pyrazol-1-yl]-3-fluorophenyl}-4-methylpyrimidine-5-carboxamide]						
99.4%	274 nM		125 nM	61.8 nM	21.3 nM	121 nM	146 nM	79.9 nM		84.6%	Cc1ncsc1C(=O)Nc1ccc(-n2nc(C(F)(F)F)cc2C2CC2)cc1 [Example 53, N-{4-[5-cyclopropyl-3-(trifluoromethyl)-1H-pyrazol-1-yl]phenyl}-4-methylthiazole-5-carboxamide]						22%
100%	132 nM		546 nM		15.7 nM	86.8 nM		352 nM	57.9 nM		Cc1ncsc1C(=O)Nc1ccc(-n2nc(C(F)(F)F)cc2C2CC2)c(F)c1 [Example 83, N-{4-[5-cyclopropyl-3-(trifluoromethyl)-1H-pyrazol-1-yl]-3-fluorophenyl}-4-methylthiazole-5-carboxamide]						
